Each structure is given as a SMILES string. Values after ≈ are worked out from the molar mass of the structure shown. Read-outs that look alike come from different tables or passages of the source.

One may read the MIC as the lowest concentration that inhibits growth of the organism. Low values mean inhibition by little substance, high ones a need for much substance.

Assay [1] deals with K. pneumoniae. Briefly: SDFAST antimicrobial susceptibility test (WST-8 colorimetric). The settings on record: Klebsiella pneumoniae, WST-8, 37° C., 6 hours. Type of assay: cell-based. On the procedure: (§1) SDFAST (Self Dilution for Faster Antimicrobial Susceptibility Testing) involved a relatively simple mechanism with three phases: loading, droplet formation, and mixing (FIG. 3A). In the loading phase, a bacteria sample with a colorimetric indicator (CCK-8, cell counting kit-8) was injected into the constant-volume channels, while the antibiotic solution is injected into the varied-volume channels. In the droplet formation phase, the upper chip was slipped, forming droplets. In the mixing phase, the bacteria sample was mixed with the antibiotic solution. […] The well before the abrupt color change represented the minimum inhibitory concentration (MIC) of the bacteria with the antibiotic.
(§2) The solutions were injected using a micropipette with 0.1-20 μL tips. For lines with constant volume, 20 μL solution was required to fill up one entire line, while for lines with varied volumes, 10 μL solution was required. The excess solution was expelled from the hole adjacent to the end side of each line and could be wiped with KimWipes. After filling the wells, the chips were slid so that the lower line aligned and overlapped with the upper line, allowing the solutions to mix. Subsequently, the chips were placed inside a Petri dish containing FC-40, and the dish was sealed with parafilm. The dish was then incubated at 37° C. for 6 hours before color analysis using ImageJ.
The bacteria were cultured on an agar plate and incubated in Mueller-Hinton Broth (MHB, Sigma-Aldrich) at 37° C. overnight. The culture solution was then diluted 1000 times with MHB and mixed with 5% WST-8 indicator (Beyotime). […]
In the present invention, the SDFAST was operated with the water-soluble tetrazolium salt-8 (WST-8) assay, in which four prevalent bacteria, Acinetobacter baumannii (A. baumannii), Escherichia coli (E. coli), Klebsiella pneumoniae (K. pneumoniae) and clinical samples containing Staphylococcus species were tested under various antibiotics. […] After the identification, the MIC value was calculated based on dilution rates.
In general terms: Formazan colour is commonly taken as a measure of viable cells.

Assay [2] concerns E. coli. As to the kind of experiment: Broth microdilution. The assay is classed as cell-based. As to conditions: Escherichia coli. As for the experimental part: (§3) Currently, AST is mostly commonly conducted by the broth microdilution method^3,4, in which the antibiotic solution of the desired concentration is prepared, injected into a microwell, and diluted serially from well to well. Afterward, an equal volume of bacteria solution is introduced to every microwell with antibiotics of varied concentrations, and the well-plate is incubated overnight. In the end, MIC is determined by observing and analyzing the turbidity of each well, and the well with the lowest concentration of antibiotic showing no turbidity represents the MIC^5. […] Another common yet less complex method is disc diffusion^7. In this technique, bacteria are initially cultured on Mueller-Hinton agar. Subsequently, antimicrobial discs are positioned on the agar plate, and the plate is left to incubate overnight. The diameters of inhibition zones, the regions where bacteria are being killed, are then measured, and these values are compared to reference standards to ascertain susceptibility. This method is used for qualitative determination of bacterial susceptibility, in which the bacteria are determined to be “resistant”, “intermediate,” or “susceptible” from the results. Despite its widespread use, this method has several drawbacks. […] Additionally, it is time-consuming, requiring 16 to 24 hours to produce results, and must be conducted in a laboratory^8,9. Consequently, an alternative approach that is portable, user-friendly, and time-efficient needs to be developed for rapid MIC determination.

In assay [3] the test system is A. baumannii. Briefly: Broth microdilution. Type of assay: cell-based. As to conditions: Acinetobacter baumannii. On the procedure:
as §3
(In general: In broth dilution the organism is exposed to a series of concentrations in liquid medium.)

In assay [4] the test system is K. pneumoniae. As to the kind of experiment: Broth microdilution. Type of assay: cell-based. As to conditions: Klebsiella pneumoniae. On the procedure:
as §3

For assay [5], the system named is E. coli. Briefly: SDFAST antimicrobial susceptibility test (WST-8 colorimetric). The assay is classed as cell-based. As to conditions: Escherichia coli, WST-8, 37° C., 6 hours. As for the experimental part:
as §1, §2
(§4) The bacteria were cultured on an agar plate and incubated in Mueller-Hinton Broth (MHB, Sigma-Aldrich) at 37° C. overnight. The culture solution was then diluted 1000 times with MHB and mixed with 5% WST-8 indicator (Beyotime). The antibiotic solutions were prepared by dissolving the desired amount of antibiotics (solid or liquid) into DI water, and the solutions were diluted by DI water according to the desired concentrations to be tested.
(§5) In the present invention, the SDFAST was operated with the water-soluble tetrazolium salt-8 (WST-8) assay, in which four prevalent bacteria, Acinetobacter baumannii (A. baumannii), Escherichia coli (E. coli), Klebsiella pneumoniae (K. pneumoniae) and clinical samples containing Staphylococcus species were tested under various antibiotics. […] The colourless or very pale yellow well before the abrupt change in each line represented the corresponding MIC, which could be easily identified by the naked eyes.

For assay [6], the system named is A. baumannii. Described as above. Type of assay: cell-based. As to conditions: Acinetobacter baumannii, WST-8, 37° C., 6 hours. As for the experimental part:
as §1, §2, §4, §5

For assay [7], the system named is S. capitis. As to conditions: cited from earlier work.
The subject of assay [8] is S. aureus. As to conditions: cited from earlier work.
In assay [9] the test system is S. haemolyticus. As to conditions: S. haemolyticus 901622-2; cited from earlier work.
The test system of assay [10] is S. haemolyticus. As to the kind of experiment: SDFAST antimicrobial susceptibility test (WST-8), clinical Staphylococcus strains. Type of assay: cell-based. As to conditions: S. haemolyticus 901622-2. As for the experimental part:
as §1, §2
(§6) They were obtained from the Department of Microbiology, Queen Mary Hospital, Hong Kong (Patient samples). Vancomycin hydrochloride solution (100 mg/mL in DMSO, Sigma-Aldrich) was diluted with DI water to desired concentrations for each strain. The results were compared to those obtained by E-test from the Department of Microbiology.

Assay [11] relates to S. capitis. The description is as above. Type of assay: cell-based. On the procedure:
as §1, §2, §6

For assay [12], the system named is S. caprae. The assay is described as above. Type of assay: cell-based. As for the experimental part:
as §1, §2, §6

Assay [13] has as its system S. aureus. The assay is described as above. The assay is classed as cell-based. As for the experimental part:
as §1, §2, §6

Assay [14] relates to S. caprae. The settings on record: cited from earlier work.

The compound `O=C(O)c1cn(C2CC2)c2cc(N3CCNCC3)c(F)cc2c1=O` [CIP, Ciprofloxacin] yielded a minimum inhibitory concentration (MIC) in the assay on K. pneumoniae [1] of 6.25 µg/mL (≈ 18.9 µM).
`CC(C)(O/N=C(\C(=O)N[C@@H]1C(=O)N2C(C(=O)[O-])=C(C[n+]3ccccc3)CS[C@H]12)c1csc(N)n1)C(=O)O` [CTZ, Ceftazidime]: the MIC against E. coli [2] was 62.5 µg/mL (≈ 114 µM); in the assay with A. baumannii [3], 62.5 to 125 µg/mL (≈ 114 to 229 µM); against K. pneumoniae [4], 125 µg/mL (≈ 229 µM); against E. coli [5], 62.5 µg/mL (≈ 114 µM); against A. baumannii [6], 62.5 µg/mL (≈ 114 µM); with K. pneumoniae [1] it was 62.5 µg/mL (≈ 114 µM).
As to `C[C@H]1COc2c(N3CCN(C)CC3)c(F)cc3c(=O)c(C(=O)O)cn1c23` [LEV, Levofloxacin], the MIC against E. coli [2] was 12.5 µg/mL (≈ 34.6 µM); with A. baumannii [3], 100 µg/mL (≈ 277 µM); against K. pneumoniae [4], 50 µg/mL (≈ 138 µM); against E. coli [5], 12.5 µg/mL (≈ 34.6 µM); against A. baumannii [6], 100 µg/mL (≈ 277 µM); with K. pneumoniae [1] it was 50 µg/mL (≈ 138 µM).
`CN[C@H](CC(C)C)C(=O)N[C@H]1C(=O)N[C@@H](CC(N)=O)C(=O)N[C@H]2C(=O)N[C@H]3C(=O)N[C@H](C(=O)N[C@H](C(=O)O)c4cc(O)cc(O)c4-c4cc3ccc4O)[C@H](O)c3ccc(c(Cl)c3)Oc3cc2cc(c3O[C@@H]2O[C@H](CO)[C@@H](O)[C@H](O)[C@H]2O[C@H]2C[C@](C)(N)[C@H](O)[C@H](C)O2)Oc2ccc(cc2Cl)[C@H]1O` [Vancomycin]: the “MIC, E-test (reference value)” value in the assay on S. capitis [7] (S. capitis 901820-1) was 1 µg/mL (≈ 0.69 µM); with S. capitis [7] (S. capitis 902278-2), 1 µg/mL (≈ 0.69 µM); with S. capitis [7] (S. capitis 902530-2), 0.5 µg/mL (≈ 0.345 µM); in the assay on S. aureus [8] (S. aureus 900967), 1 µg/mL (≈ 0.69 µM); in the assay with S. aureus [8] (S. aureus 901089) it was 1 µg/mL (≈ 0.69 µM); in the assay with S. aureus [8] (S. aureus 901763) it was 0.5 µg/mL (≈ 0.345 µM). Besides, the “MIC, E-test (reference value)” value in the assay on S. aureus [8] (S. aureus 902126) was 0.75 µg/mL (≈ 0.518 µM); with S. aureus [8] (S. aureus 902154), 0.5 µg/mL (≈ 0.345 µM); in the assay with S. aureus [8] (S. aureus 902395) it was 0.5 µg/mL (≈ 0.345 µM); with S. aureus [8] (S. aureus 903245), 0.75 µg/mL (≈ 0.518 µM); in the assay on S. aureus [8] (S. aureus 932674), 0.75 µg/mL (≈ 0.518 µM); in the assay on S. haemolyticus [9], 1.5 µg/mL (≈ 1.04 µM). Besides, the “MIC, E-test (reference value)” value in the assay on S. caprae [14] (S. caprae 901820-2) is 1.5 µg/mL (≈ 1.04 µM); in the assay with S. caprae [14] (S. caprae 902278-1), 0.19 µg/mL (≈ 0.131 µM); with S. caprae [14] (S. caprae 903211) it was 0.5 µg/mL (≈ 0.345 µM); with S. caprae [14] (S. caprae 903522), 1 µg/mL (≈ 0.69 µM). Besides, the minimum inhibitory concentration (MIC) in the assay on S. haemolyticus [10] was found to be 1.56 µg/mL (≈ 1.08 µM); against S. capitis [11] (S. capitis 901820-1) it was 1 µg/mL (≈ 0.69 µM); in the assay on S. capitis [11] (S. capitis 902278-2) it was 1 µg/mL (≈ 0.69 µM); with S. capitis [11] (S. capitis 902530-2), 0.55 µg/mL (≈ 0.38 µM); in the assay with S. caprae [12] (S. caprae 901820-2), 1.56 µg/mL (≈ 1.08 µM); in the assay with S. caprae [12] (S. caprae 902278-1), 0.195 µg/mL (≈ 0.135 µM). Moreover, the MIC against S. caprae [12] (S. caprae 903211) is 0.5 µg/mL (≈ 0.345 µM); against S. caprae [12] (S. caprae 903522), 1.11 µg/mL (≈ 0.766 µM); against S. aureus [13] (S. aureus 900967) it was 1 µg/mL (≈ 0.69 µM); in the assay with S. aureus [13] (S. aureus 901089) it was 1 µg/mL (≈ 0.69 µM); against S. aureus [13] (S. aureus 901763), 0.5 µg/mL (≈ 0.345 µM); against S. aureus [13] (S. aureus 902126), 0.77 to 1.4 µg/mL (≈ 0.531 to 0.966 µM). In addition, the MIC is 0.94 µg/mL (≈ 0.649 µM) with S. aureus [13] (S. aureus 902154), 0.5 µg/mL (≈ 0.345 µM) with S. aureus [13] (S. aureus 902395), 1.4 µg/mL (≈ 0.966 µM) against S. aureus [13] (S. aureus 903245) and 0.77 to 1.4 µg/mL (≈ 0.531 to 0.966 µM) with S. aureus [13] (S. aureus 932674).

Source of the values: patent US20250101487A1, “SELF-DILUTING MICROFLUIDIC DEVICE FOR RAPID ANTIMICROBIAL SUSCEPTIBILITY TESTS” (The University of Hong Kong, priority 2023, published 2025).
